Data published in patent publication US5972351A, “Plasmodium falciparum MHC class I-restricted CTL epitopes derived from pre-erythrocytic stage antigens” (Isis Innovation Limited, priority 1992, dated 1999).

Experiments:
B53 matched target cells = experiment: CTL assay with HIV-2 gag restimulated CTL; type: cell-based, human; settings: CTL from one HLA-B53 positive HIV-2 infected Gambian
HLA-B53 = target: T1, HLA-B53 (Homo sapiens, UniProt P01889, A329T/A93T/A95T/C349S/D201E/D98Y/E176V/E187L/E204Q/E69T/G107R/I218V/K202T/L105A/L119I/N104I/Q94N/R106L/R155S/R180L/S101N/S121R/S35A/S48A/T118I/V127L/V306I/V36M/Y140S/Y91F); experiment: HLA assembly assay (peptide binding to HLA-B53); settings: lysates of T2-B53 cells; all peptides initially tested at 4 μM
T1 construct: by transfection with a genomic clone of HLA-B53 using hygromycin selection; expressed in transfected cells; host or cells: T2-B53 (T2 cells transfected with a genomic clone of HLA-B53); lysates of 35S-methionine-labelled cells
Protocol: Briefly, the mutant cell line T2-B53 was derived from T2 cells of HLA type, HLA-A2, -B51, by transfection with a genomic clone of HLA-B53 using hygromycin selection. […] Peptide concentrations were determined with a Micro BCA colourimetric assay (Pierce). Peptides were added to lysates of ^35 S-methionine-labelled cells and incubated overnight at 4° C.^36. Stable assembled class I molecules were then precipitated with monoclonal antibodies W6/32^34 (reactive with all assembled class I molecules) or MHM5^41 (reactive with assembled HLA-B but not HLA-A molecules).

## ALSEGCTPYDINQMLNNCVGD [P1]
B53 matched target cells
  recognition of peptide-pulsed targets by HIV 2-gag restimulated CTL: recognised
HLA-B53
  binding to HLA-B53 in the HLA assembly assay: positive result
